Data taken from patent US20110039721A1, “METHOD FOR PREDICTION ABOUT CARCINOGENICITY OF SUBSTANCE IN RODENT” (Chemicals Evaluation and Research Institute, priority 2007, published 2011).

Columns and labels:
liver = details: in vivo; cited from earlier work
[1] = classification of the substance (M+/M−); cited from earlier work
[2] = system: mRNA expressed from the genes (A) to (D) in rat liver; assay: Behavior of genes (mRNA expression level, oligo-DNA microarray) in rat liver after 28-day oral administration; assay type: in vivo; details: rat, in vivo
Method in brief: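 Male F344 SPF rats, 5 weeks old, four per group, received carcinogens, non-carcinogens or solvent vehicle by oral gavage once daily for 28 days. Liver total RNA was then extracted. Changes of ≥1.5-fold or ≤1/1.5 versus vehicle control, in a consistent direction across carcinogens, counted as significant.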

rodent = details: in vivo; cited from earlier work

Cc1c(C)c2c(c(C)c1O)CC[C@@](C)(CCC[C@H](C)CCC[C@H](C)CCCC(C)C)O2 [TS062, α-Tocopherol (Vitamin E)]
M−: Mutagenicity by Ames test [1]
+: Behavior of gene caused by administration of chemical substance, Gene No. 1163 [2] | Behavior of gene caused by administration of chemical substance, Gene No. 6742 [2]
Cr−: Liver carcinogenicity (liver)
C−: Carcinogenicity (rodent)
−: Behavior of gene caused by administration of chemical substance, Gene No. 154 [2] | Behavior of gene caused by administration of chemical substance, Gene No. 533 [2] | Behavior of gene caused by administration of chemical substance, Gene No. 725 [2] | Behavior of gene caused by administration of chemical substance, Gene No. 813 [2] | Behavior of gene caused by administration of chemical substance, Gene No. 893 [2] | Behavior of gene caused by administration of chemical substance, Gene No. 1119 [2] | Behavior of gene caused by administration of chemical substance, Gene No. 1131 [2] | Behavior of gene caused by administration of chemical substance, Gene No. 1334 [2] | Behavior of gene caused by administration of chemical substance, Gene No. 1494 [2] | Behavior of gene caused by administration of chemical substance, Gene No. 1562 [2] | Behavior of gene caused by administration of chemical substance, Gene No. 1741 [2] | Behavior of gene caused by administration of chemical substance, Gene No. 1993 [2] | Behavior of gene caused by administration of chemical substance, Gene No. 2026 [2] | Behavior of gene caused by administration of chemical substance, Gene No. 2045 [2] | Behavior of gene caused by administration of chemical substance, Gene No. 2203 [2] | Behavior of gene caused by administration of chemical substance, Gene No. 2494 [2] | Behavior of gene caused by administration of chemical substance, Gene No. 2546 [2] | Behavior of gene caused by administration of chemical substance, Gene No. 3776 [2] | Behavior of gene caused by administration of chemical substance, Gene No. 3929 [2] | Behavior of gene caused by administration of chemical substance, Gene No. 4095 [2] | Behavior of gene caused by administration of chemical substance, Gene No. 4218 [2] | Behavior of gene caused by administration of chemical substance, Gene No. 4846 [2] | Behavior of gene caused by administration of chemical substance, Gene No. 4973 [2] | Behavior of gene caused by administration of chemical substance, Gene No. 5600 [2] | Behavior of gene caused by administration of chemical substance, Gene No. 5634 [2] | Behavior of gene caused by administration of chemical substance, Gene No. 5726 [2] | Behavior of gene caused by administration of chemical substance, Gene No. 5878 [2] | Behavior of gene caused by administration of chemical substance, Gene No. 6026 [2] | Behavior of gene caused by administration of chemical substance, Gene No. 6182 [2] | Behavior of gene caused by administration of chemical substance, Gene No. 6303 [2] | Behavior of gene caused by administration of chemical substance, Gene No. 6620 [2]
